Results as given in patent US20220024945A1, “THERAPEUTIC COMPOUNDS AND COMPOSITIONS, AND METHODS OF USE THEREOF” (Genentech, Inc., priority 2017, published 2022).
Where two headings read alike, the source gives them in different places.

What was measured:
[1] = test system: JAK1-dependent STAT6 phosphorylation downstream of IL-13 stimulation, BEAS-2B cells; assay: JAK1 pathway assay in cell lines: P-STAT6 in BEAS-2B cells + IL13; assay type: cell-based; settings: BEAS-2B human bronchial epithelial cells, 1 hr compound preincubation, read-out: P-STAT6 BEAS2B + IL13 IC50
Protocol: JAK1 Pathway Assay in Cell Lines was Carried Out as Follows:
Inhibitor potency (EC50) was determined in cell-based assays designed to measure JAK1 dependent STAT phosphorylation. As noted above, inhibition of IL-4, IL-13, and IL-9 signaling by blocking the Jak/Stat signaling pathway can alleviate asthmatic symptoms in pre-clinical lung inflammation models (Mathew et al., 2001, J Exp Med 193(9): 1087-1096; Kudlacz et. al., 2008, Eur J. Pharmacol 582(1-3): 154-161).
In one assay approach, TF-1 human erythroleukemia cells obtained from the American Type Culture Collection (ATCC; Manassas, Va.) were used to measure JAK1-dependent STAT6 phosphorylation downstream of IL-13 stimulation. Prior to use in the assays, TF-1 cells were starved of GM-CSF overnight in OptiMEM medium (Life Technologies, Grand Island, N.Y.) supplemented with 0.5% charcoal/dextran stripped fetal bovine serum (FBS), 0.1 mM non-essential amino acids (NEAA), and 1 mM sodium pyruvate. The assays were run in 384-well plates in serum-free OptiMEM medium using 300,000 cells per well. In a second assay approach, BEAS-2B human bronchial epithelial cells obtained from ATCC were plated at 100,000 cells per well of a 96-well plate one day prior to the experiment. The BEAS-2B assay was run in complete growth medium (bronchial epithelial basal medium plus bulletkit; Lonza; Basel, Switzerland).
Test compounds were serially diluted 1:2 in DMSO and then diluted 1:50 in medium just before use. Diluted compounds were added to the cells, for a final DMSO concentration of 0.2%, and incubated for 30 m (for the TF-1 assay) or 1 hr (for the BEAS-2B assay) at 37° C. Then, cells were stimulated with human recombinant cytokine at their respective EC90 concentrations, as previously determined for each individual lot. Cells were stimulated with […] (R&D Systems, Minneapolis, Minn.) for 15 m/at 37° C. The TF-1 cell reactions were stopped by the direct addition of 10× lysis buffer (Cell Signaling Technologies, Danvers, Mass.), whereas the BEAS-2B cell incubations were halted by the removal of medium and addition of 1× lysis buffer. The resultant samples were frozen in the plates at −80° C. Compound mediated inhibition of STAT6 phosphorylation was measured in the cell lysates using MesoScale Discovery (MSD) technology (Gaithersburg, Md.). EC50 values were determined as the concentration of compound required for 50% inhibition of STAT phosphorylation relative to that measured for the DMSO control.

[2] = biological target: isolated recombinant JAK2 kinase domain (Homo sapiens, UniProt O60674); assay: JAK enzyme assay (Caliper LabChip), JAK2 kinase domain; settings: ATP 25 μM, 0.2 nM JAK2, Morrison tight binding model
Sequence of isolated recombinant JAK2 kinase domain (O60674 849-1124 limits assumed): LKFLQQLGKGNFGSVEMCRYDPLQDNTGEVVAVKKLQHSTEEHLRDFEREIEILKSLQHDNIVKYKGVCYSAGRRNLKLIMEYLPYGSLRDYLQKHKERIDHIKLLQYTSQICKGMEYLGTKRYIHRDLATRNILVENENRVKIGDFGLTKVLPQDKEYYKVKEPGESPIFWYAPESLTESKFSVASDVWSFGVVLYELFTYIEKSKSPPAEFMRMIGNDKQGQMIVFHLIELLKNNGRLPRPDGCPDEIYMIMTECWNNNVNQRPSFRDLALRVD
Protocol: JAK Enzyme Assays were Carried Out as Follows:
The activity of the isolated recombinant JAK1 and JAK2 kinase domain was measured by monitoring phosphorylation of a peptide derived from JAK3 ([sequence] fluorescently labeled on the N-terminus with 5-carboxyfluorescein) using the Caliper LabChip® technology (Caliper Life Sciences, Hopkinton, Mass.). […] Reactions were incubated at 22° C. in 384-well polypropylene microtiter plates for 30 minutes and then stopped by addition of 25 μL of an EDTA containing solution (100 mM HEPES buffer (pH 7.2), 0.015% Brij-35, 150 mM EDTA), resulting in a final EDTA concentration of 50 mM. After termination of the kinase reaction, the proportion of phosphorylated product was determined as a fraction of total peptide substrate using the Caliper LabChip® 3000 according to the manufacturer's specifications.

[3] = biological target: isolated recombinant JAK1 kinase domain (Homo sapiens, UniProt P23458); assay: JAK enzyme assay (Caliper LabChip), JAK1 kinase domain; assay type: biochemical; settings: ATP 25 μM; 1.5 nM JAK1; Morrison tight binding model
Sequence of isolated recombinant JAK1 kinase domain (P23458 875-1153 limits assumed): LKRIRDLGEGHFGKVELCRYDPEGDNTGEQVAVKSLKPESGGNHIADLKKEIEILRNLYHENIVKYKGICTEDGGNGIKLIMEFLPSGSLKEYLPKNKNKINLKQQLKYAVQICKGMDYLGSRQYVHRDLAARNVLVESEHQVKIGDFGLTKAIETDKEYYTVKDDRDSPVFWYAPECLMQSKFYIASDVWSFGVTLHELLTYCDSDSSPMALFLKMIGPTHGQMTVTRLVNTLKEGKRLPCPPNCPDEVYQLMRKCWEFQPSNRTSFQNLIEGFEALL

Compound	IC50 ([1]; Homo sapiens, BEAS-2B, 1 h)	Ki [2]	Ki [3]	IC50 [1]
CN(C1CCN(C(=O)Cn2cc(NC(=O)c3cnn4cccnc34)c(-c3cc(SC4CCOCC4)ccc3OC(F)F)n2)CC1)C1COC1 [Example 6, N-[3-[2-(difluoromethoxy)-5-tetrahydropyran-4-ylsulfanyl-phenyl]-1-[2-[44-[methyl(oxetan-3-yl)amino]-1-piperidyl]-2-oxo-ethyl]pyrazol-4-yl]pyrazolo[1,5-a]pyrimidine-3-carboxamide]	278 nM	2.93 nM	0.97 nM	
O=C(Nc1cn(Cc2cn(C3CCN([C@H]4CCOC4)CC3)nn2)nc1-c1cc(SC2CC2)ccc1OC(F)F)c1cnn2cccnc12 (stereo in doubt) [Example 13, N-[3-[5-cyclopropylsulfanyl-2-(difluoromethoxy)phenyl]-1-[[1-[1-[rac-(3S)-tetrahydrofuran-3-yl]-4-piperidyl]triazol-4-yl]methyl]pyrazol-4-yl]pyrazolo[1,5-a]pyrimidine-3-carboxamide]	17 nM	0.36 nM	0.56 nM	
O=C(Nc1cn(C2CN(C3CC(O)C3)C2)nc1-c1cc(SC2COC2)ccc1OC(F)F)c1cnn2cccnc12 (single isomer, unassigned) [Example 39, N-[3-[2-(difluoromethoxy)-5-(oxetan-3-ylsulfanyl)phenyl]-1-[1-(3-hydroxycyclobutyl)azetidin-3-yl]pyrazol-4-yl]pyrazolo[1,5-a]pyrimidine-3-carboxamide]	35 nM	1.18 nM	1.44 nM	
CSc1ccc(OC(F)F)c(-c2nn(CC(=O)N3CCCCC3)cc2NC(=O)c2cnn3cccnc23)c1 [Example 29]	14 nM	0.39 nM	0.25 nM	
CC(=O)N1CCC(Sc2ccc(OC(F)F)c(-c3n[nH]cc3NC(=O)c3cnn4cccnc34)c2)CC1 [Example 34, N-[3-[5-[(1-acetyl-4-piperidyl)sulfanyl]-2-(difluoromethoxy)phenyl]-1H-pyrazol-4-yl]pyrazolo[1,5-a]pyrimidine-3-carboxamide]	251 nM	0.39 nM	1.02 nM	
CN(C)C(=O)Cn1cc(NC(=O)c2cnn3cccnc23)c(-c2cc(SC(F)F)ccc2OC(F)F)n1 [Example 33, N-[3-[2-(difluoromethoxy)-5-(difluoromethylsulfanyl)phenyl]-1-[2-(dimethylamino)-2-oxo-ethyl]pyrazol-4-yl]pyrazolo[1,5-a]pyrimidine-3-carboxamide]	10 nM	0.52 nM	0.21 nM	
O=C(Nc1c[nH]nc1-c1cc(SC2CCCNC2)ccc1OC(F)F)c1cnn2cccnc12 (single isomer, unassigned) [Example 37, N-[3-[2-(difluoromethoxy)-5-(3-piperidylsulfanyl)phenyl]-1H-pyrazol-4-yl]pyrazolo[1,5-a]pyrimidine-3-carboxamide]		0.57 nM	1.16 nM	222 nM
O=C(Nc1cn(C2COC2)nc1-c1cc(SC2COC2)ccc1OC(F)F)c1cnn2cccnc12 [Example 24, N-[3-[2-(difluoromethoxy)-5-(oxetan-3-ylsulfanyl)phenyl]-1-(oxetan-3-yl)pyrazol-4-yl]pyrazolo[1,5-a]pyrimidine-3-carboxamide]	17 nM	0.22 nM	0.46 nM	
O=C(Nc1c[nH]nc1-c1cc(SC2CCCCC2)ccc1OC(F)F)c1cnn2cccnc12 [Example 2, N-[3-[5-cyclohexylsulfanyl-2-(difluoromethoxy)phenyl]-1H-pyrazol-4-yl]pyrazolo[1,5-a]pyrimidine-3-carboxamide]	43 nM	0.28 nM	0.67 nM	
CN1CCCC(Sc2ccc(OC(F)F)c(-c3n[nH]cc3NC(=O)c3cnn4cccnc34)c2)C1 (single isomer, unassigned) [Example 38, N-[3-[2-(difluoromethoxy)-5-[(1-methyl-3-piperidyl)sulfanyl]phenyl]-1H-pyrazol-4-yl]pyrazolo[1,5-a]pyrimidine-3-carboxamide]	56 nM	1.38 nM	2.93 nM	
O=C(Nc1c[nH]nc1-c1cc(SC(F)(F)F)ccc1OC(F)F)c1cnn2cccnc12 [Example 5, N-[3-[2-(difluoromethoxy)-5-(trifluoromethylsulfanyl)phenyl]-1H-pyrazol-4-yl]pyrazolo[1,5-a]pyrimidine-3-carboxamide]	6 nM	0.21 nM	0.5 nM	
CC(CO)Sc1ccc(OC(F)F)c(-c2n[nH]cc2NC(=O)c2cnn3cccnc23)c1 (stereo not drawn) [Example 4, N-[3-[2-(difluoromethoxy)-5-(2-hydroxy-1-methyl-ethyl)sulfanyl-phenyl]-1H-pyrazol-4-yl]pyrazolo[1,5-a]pyrimidine-3-carboxamide]	35 nM	0.15 nM	0.23 nM	
